{"source": "patent US8143275B2", "about": "“Use of triazolopyrimidine derivatives as microbicides” (LANXESS Deutschland GmbH, priority 2001, dated 2012)", "experiment_in_all_cases": "Inhibitory test with giant colonies of Basidiomycetes", "assay_type_in_all_cases": "cell-based", "conditions_in_all_cases": "6 ppm active compound in agar medium, 26° C., compared to medium without active compound", "key": {"[1]": {"system": "Coriolus versicolor (P5)", "description": "(§1) Inhibitory test with giant colonies of Basidiomycetes\n(§2) Mycelium pieces were punched out of colonies of Gloeophyllum trabeum (P1), Coniophora puteana (P2), Poria placenta (P3), Lentinus tigrinus (P4), Coriolus versicolor (P5) and Sterum sanguinolentum (P6) and incubated at 26° C. on an agar medium. The inhibition of the growth of the fungal threads on the active-compound-containing medium (concentration of active compound: 6 ppm) was compared to the longitudinal growth of medium without added active compound and rated in inhibition percent."}, "[2]": {"system": "Gloeophyllum trabeum (P1)", "description": "as §1, §2"}, "[3]": {"system": "Coniophora puteana (P2)", "description": "as §1, §2"}, "[4]": {"system": "Lentinus tigrinus (P4)", "description": "as §1, §2"}, "[5]": {"system": "Sterum sanguinolentum (P6)", "description": "as §1, §2"}, "[6]": {"system": "Poria placenta (P3)", "description": "as §1, §2"}}}
{"compound": "Fc1cccc(-c2c(Cl)nc3ncnn3c2NC2CCCC2)c1", "note": "[No 1]", "values": [{"measurement": "P5: inhibition of the growth of the fungal threads", "setting": "[1]", "value": 91, "unit": "%"}, {"measurement": "P1: inhibition of the growth of the fungal threads", "setting": "[2]", "value": 80, "unit": "%"}, {"measurement": "P2: inhibition of the growth of the fungal threads", "setting": "[3]", "value": 100, "unit": "%"}]}
{"compound": "Clc1ccccc1-c1c(Cl)nc2ncnn2c1NC1CCCC1", "note": "[No 2]", "values": [{"measurement": "P5: inhibition of the growth of the fungal threads", "setting": "[1]", "value": 100, "unit": "%"}, {"measurement": "P1: inhibition of the growth of the fungal threads", "setting": "[2]", "value": 100, "unit": "%"}, {"measurement": "P4: inhibition of the growth of the fungal threads", "setting": "[4]", "value": 94, "unit": "%"}, {"measurement": "P2: inhibition of the growth of the fungal threads", "setting": "[3]", "value": 100, "unit": "%"}, {"measurement": "P6: inhibition of the growth of the fungal threads", "setting": "[5]", "value": 100, "unit": "%"}]}
{"compound": "Fc1cccc(F)c1-c1c(Cl)nc2ncnn2c1NC1CCCC1", "note": "[No 3]", "values": [{"measurement": "P5: inhibition of the growth of the fungal threads", "setting": "[1]", "value": 100, "unit": "%"}, {"measurement": "P1: inhibition of the growth of the fungal threads", "setting": "[2]", "value": 100, "unit": "%"}, {"measurement": "P4: inhibition of the growth of the fungal threads", "setting": "[4]", "value": 100, "unit": "%"}, {"measurement": "P2: inhibition of the growth of the fungal threads", "setting": "[3]", "value": 100, "unit": "%"}, {"measurement": "P6: inhibition of the growth of the fungal threads", "setting": "[5]", "value": 100, "unit": "%"}]}
{"compound": "Fc1cc(F)c(-c2c(Cl)nc3ncnn3c2NC2CCCC2)c(F)c1", "note": "[No 4]", "values": [{"measurement": "P5: inhibition of the growth of the fungal threads", "setting": "[1]", "value": 100, "unit": "%"}]}
{"compound": "Clc1nc2ncnn2c(NC2CCCC2)c1-c1ccccc1", "note": "[No 5]", "values": [{"measurement": "P5: inhibition of the growth of the fungal threads", "setting": "[1]", "value": 100, "unit": "%"}]}
{"compound": "CC(C)Nc1c(-c2ccc(Cl)cc2Cl)c(Cl)nc2ncnn12", "note": "[No 6]", "values": [{"measurement": "P5: inhibition of the growth of the fungal threads", "setting": "[1]", "value": 95, "unit": "%"}, {"measurement": "P1: inhibition of the growth of the fungal threads", "setting": "[2]", "value": 95, "unit": "%"}, {"measurement": "P2: inhibition of the growth of the fungal threads", "setting": "[3]", "value": 100, "unit": "%"}, {"measurement": "P6: inhibition of the growth of the fungal threads", "setting": "[5]", "value": 100, "unit": "%"}]}
{"compound": "Fc1ccccc1-c1c(Cl)nc2ncnn2c1N1CCCCCC1", "note": "[No 7]", "values": [{"measurement": "P5: inhibition of the growth of the fungal threads", "setting": "[1]", "value": 100, "unit": "%"}, {"measurement": "P1: inhibition of the growth of the fungal threads", "setting": "[2]", "value": 100, "unit": "%"}, {"measurement": "P4: inhibition of the growth of the fungal threads", "setting": "[4]", "value": 94, "unit": "%"}, {"measurement": "P2: inhibition of the growth of the fungal threads", "setting": "[3]", "value": 100, "unit": "%"}, {"measurement": "P6: inhibition of the growth of the fungal threads", "setting": "[5]", "value": 100, "unit": "%"}]}
{"compound": "Fc1cccc(F)c1-c1c(Cl)nc2ncnn2c1N1CCCCCC1", "note": "[No 8]", "values": [{"measurement": "P3: inhibition of the growth of the fungal threads", "setting": "[6]", "value": 100, "unit": "%"}, {"measurement": "P5: inhibition of the growth of the fungal threads", "setting": "[1]", "value": 100, "unit": "%"}, {"measurement": "P1: inhibition of the growth of the fungal threads", "setting": "[2]", "value": 100, "unit": "%"}, {"measurement": "P4: inhibition of the growth of the fungal threads", "setting": "[4]", "value": 100, "unit": "%"}, {"measurement": "P2: inhibition of the growth of the fungal threads", "setting": "[3]", "value": 100, "unit": "%"}, {"measurement": "P6: inhibition of the growth of the fungal threads", "setting": "[5]", "value": 100, "unit": "%"}]}
{"compound": "CC1CCN(c2c(-c3c(F)cc(F)cc3F)c(Cl)nc3ncnn23)CC1", "note": "[No 9]", "values": [{"measurement": "P3: inhibition of the growth of the fungal threads", "setting": "[6]", "value": 100, "unit": "%"}, {"measurement": "P5: inhibition of the growth of the fungal threads", "setting": "[1]", "value": 100, "unit": "%"}, {"measurement": "P1: inhibition of the growth of the fungal threads", "setting": "[2]", "value": 100, "unit": "%"}, {"measurement": "P4: inhibition of the growth of the fungal threads", "setting": "[4]", "value": 100, "unit": "%"}, {"measurement": "P2: inhibition of the growth of the fungal threads", "setting": "[3]", "value": 100, "unit": "%"}, {"measurement": "P6: inhibition of the growth of the fungal threads", "setting": "[5]", "value": 100, "unit": "%"}]}
{"compound": "CC1CCN(c2c(-c3c(F)cccc3Cl)c(Cl)nc3ncnn23)CC1", "note": "[No 10]", "values": [{"measurement": "P3: inhibition of the growth of the fungal threads", "setting": "[6]", "value": 100, "unit": "%"}, {"measurement": "P5: inhibition of the growth of the fungal threads", "setting": "[1]", "value": 100, "unit": "%"}, {"measurement": "P1: inhibition of the growth of the fungal threads", "setting": "[2]", "value": 100, "unit": "%"}, {"measurement": "P4: inhibition of the growth of the fungal threads", "setting": "[4]", "value": 100, "unit": "%"}, {"measurement": "P2: inhibition of the growth of the fungal threads", "setting": "[3]", "value": 100, "unit": "%"}, {"measurement": "P6: inhibition of the growth of the fungal threads", "setting": "[5]", "value": 100, "unit": "%"}]}
{"compound": "C[C@H](Nc1c(-c2c(F)cc(F)cc2F)c(Cl)nc2ncnn12)C(F)(F)F", "note": "[No 11]", "values": [{"measurement": "P3: inhibition of the growth of the fungal threads", "setting": "[6]", "value": 100, "unit": "%"}, {"measurement": "P5: inhibition of the growth of the fungal threads", "setting": "[1]", "value": 100, "unit": "%"}, {"measurement": "P1: inhibition of the growth of the fungal threads", "setting": "[2]", "value": 100, "unit": "%"}, {"measurement": "P4: inhibition of the growth of the fungal threads", "setting": "[4]", "value": 100, "unit": "%"}, {"measurement": "P2: inhibition of the growth of the fungal threads", "setting": "[3]", "value": 100, "unit": "%"}, {"measurement": "P6: inhibition of the growth of the fungal threads", "setting": "[5]", "value": 100, "unit": "%"}]}
